# Source: ChEMBL document CHEMBL1201862, “PubChem BioAssay data set” (2004)
#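 Dose response: 5 concentrations. Exposure: 48 h. Format: 96-well plates. Endpoint: linear interpolation; highest concentration if not reached. The concentration for 50% growth inhibition is given as GI50.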 Calls of active or inactive are those of the source. Cut-off read from the data, not from the text of the source: active = GI50 up to about 1.1 µM and inactive = higher. Where a SMILES comes first, the peptide text is derived from it. The star is where a group is joined. Boc = CC(C)(C)OC(=O)*; OSu = O=C1CCC(=O)N1O*
# Key:
# Assay in all cases: NCI tumour cell line growth inhibition, 48 h
# CCRF-CEM = system: CCRF-CEM
# COLO 205 = system: COLO 205
# EKVX = system: EKVX
# Hs-578T = system: Hs-578T
# IGROV-1 = system: IGROV-1
# M14 = system: M14
# MDA-MB-231 = system: MDA-MB-231
# NCI/ADR-RES = system: NCI/ADR-RES
# OVCAR-4 = system: OVCAR-4
# OVCAR-8 = system: OVCAR-8
# RPMI-8226 = system: RPMI-8226
# SF-268 = system: SF-268
# SF-539 = system: SF-539
# SK-OV-3 = system: SK-OV-3
# U-251 = system: U-251
# UACC-62 = system: UACC-62
# UO-31 = system: UO-31
# A549 = system: A549
# Malme-3M = system: Malme-3M
# HL-60 = system: HL-60
SMILES,GI50 (CCRF-CEM),GI50 (COLO 205),GI50 (EKVX),GI50 (Hs-578T),GI50 (IGROV-1),GI50 (M14),GI50 (MDA-MB-231),GI50 (NCI/ADR-RES),GI50 (OVCAR-4),GI50 (OVCAR-8),GI50 (RPMI-8226),GI50 (SF-268),GI50 (SF-539),GI50 (SK-OV-3),GI50 (U-251),GI50 (UACC-62),GI50 (UO-31),GI50 (A549),GI50 (Malme-3M),GI50 (HL-60)
Oc1nc2c(c(-c3ccc(F)cc3)n1)COC/C2=C\c1ccc(F)cc1,> 100 µM (inactive),> 100 µM (inactive),> 100 µM (inactive),> 100 µM (inactive),> 100 µM (inactive),> 100 µM (inactive),> 100 µM (inactive),> 100 µM (inactive),> 100 µM (inactive),> 100 µM (inactive),> 100 µM (inactive),> 100 µM (inactive),> 100 µM (inactive),> 100 µM (inactive),> 100 µM (inactive),> 100 µM (inactive),> 100 µM (inactive),–,–,–
COc1ccc2c(c1)-c1nc(=S)n(CCN(C)C)c3ccc([N+](=O)[O-])c(c13)N2,1.09 µM (active),0.865 µM (active),1.97 µM (inactive),1.37 µM (inactive),0.832 µM (active),2.94 µM (inactive),1.23 µM (inactive),1.09 µM (active),2.36 µM (inactive),0.484 µM (active),0.573 µM (active),0.671 µM (active),0.824 µM (active),0.57 µM (active),1.08 µM (active),10.6 µM (inactive),0.794 µM (active),0.515 µM (active),0.693 µM (active),–
CC(C)(C)OC(=O)NC(Cc1ccc(O)cc1)C(=O)NC(CCCCN)C(=O)NC(Cc1ccc(O)cc1)C(=O)NC(CCCCN)C(=O)ON1C(=O)CCC1=O (stereo not given) (Boc-YKYK-OSu; configuration not given here),> 100 µM (inactive),> 100 µM (inactive),> 100 µM (inactive),> 100 µM (inactive),85.3 µM (inactive),> 100 µM (inactive),> 100 µM (inactive),–,–,> 100 µM (inactive),> 100 µM (inactive),–,–,–,> 100 µM (inactive),> 100 µM (inactive),> 100 µM (inactive),> 100 µM (inactive),> 100 µM (inactive),> 100 µM (inactive)
Brc1cccc(/C=N/C23CC4CC(CC(C4)C2)C3)c1,> 100 µM (inactive),> 100 µM (inactive),> 100 µM (inactive),–,> 100 µM (inactive),> 100 µM (inactive),–,–,> 100 µM (inactive),> 100 µM (inactive),> 100 µM (inactive),> 100 µM (inactive),> 100 µM (inactive),> 100 µM (inactive),> 100 µM (inactive),> 100 µM (inactive),> 100 µM (inactive),> 100 µM (inactive),> 100 µM (inactive),> 100 µM (inactive)
CC(=O)C1C(c2ccccc2)C2(C)OC(=O)C(C#N)C12C (stereo not given),> 100 µM (inactive),> 100 µM (inactive),> 100 µM (inactive),–,> 100 µM (inactive),> 100 µM (inactive),–,–,> 100 µM (inactive),> 100 µM (inactive),> 100 µM (inactive),> 100 µM (inactive),> 100 µM (inactive),> 100 µM (inactive),> 100 µM (inactive),> 100 µM (inactive),> 100 µM (inactive),> 100 µM (inactive),> 100 µM (inactive),> 100 µM (inactive)
CC(C)CN1CN(c2ccccc2)C2(CCN(CC(C)(c3ccc(F)cc3)C3OCCO3)CC2)C1=O (stereo not given),3.55 µM (inactive),1.65 µM (inactive),6.01 µM (inactive),3.66 µM (inactive),–,2.36 µM (inactive),–,7.41 µM (inactive),5.6 µM (inactive),10.1 µM (inactive),1.94 µM (inactive),8.39 µM (inactive),5.18 µM (inactive),3.89 µM (inactive),4.75 µM (inactive),6.92 µM (inactive),2.7 µM (inactive),5.09 µM (inactive),4.89 µM (inactive),2.68 µM (inactive)
Cn1cnc2nc(Cl)nc(NC(C)(C)C(C)(C)O)c21,> 100 µM (inactive),> 100 µM (inactive),> 100 µM (inactive),–,> 100 µM (inactive),> 100 µM (inactive),–,–,> 100 µM (inactive),> 100 µM (inactive),> 100 µM (inactive),> 100 µM (inactive),> 100 µM (inactive),> 100 µM (inactive),> 100 µM (inactive),> 100 µM (inactive),> 100 µM (inactive),> 100 µM (inactive),> 100 µM (inactive),> 100 µM (inactive)
